Patent US20250026746A1, “ENHANCERS OF PARTICULATE GUANYLYL CYCLASE RECEPTOR A” (Mayo Foundation for Medical Education and Research, priority 2021, published 2025)

How the values were obtained:
[1] = target: T1, extracellular domain human GC-A recombinant protein (Homo sapiens, UniProt P16066); experiment: Surface plasmon resonance binding to GC-A receptor; conditions: acetate salt, SPR 25° C., 1:1 Langmuir model; for kon: read-out: ka association rate; for koff: read-out: kd dissociation rate
T1 construct: extracellular domain human GC-A recombinant protein; purchased My BioSource, Inc. San Diego, CA
T1 sequence (P16066 33-473 limits assumed): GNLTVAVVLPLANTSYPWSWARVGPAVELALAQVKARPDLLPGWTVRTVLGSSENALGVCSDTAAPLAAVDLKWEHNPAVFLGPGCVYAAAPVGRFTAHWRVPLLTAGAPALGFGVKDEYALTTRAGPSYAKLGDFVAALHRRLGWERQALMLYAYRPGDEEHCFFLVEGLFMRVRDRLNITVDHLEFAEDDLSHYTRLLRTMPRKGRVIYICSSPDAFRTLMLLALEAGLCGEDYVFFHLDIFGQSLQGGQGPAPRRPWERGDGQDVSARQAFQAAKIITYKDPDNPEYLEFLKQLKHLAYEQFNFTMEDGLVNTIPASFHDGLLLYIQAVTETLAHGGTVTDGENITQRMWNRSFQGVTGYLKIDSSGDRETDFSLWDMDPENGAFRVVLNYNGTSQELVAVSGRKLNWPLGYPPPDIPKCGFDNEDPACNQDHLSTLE
Experimental: Surface plasmon resonance (SPR) measurements were performed at 25° C. on a BI-4500 SPR instrument (Biosensing Instrument Inc. Tempe AZ). As per the instructions by the Biosensing instrument manual, 400 mM nickel sulfate in deionized water was linked to the Ni-NTA sensor chip (Biosensing Instrument Inc. Tempe AZ. Then 30 μg/ml of extracellular domain human GC-A recombinant protein (My BioSource, Inc. San Diego, CA), containing 12 histidine residues on the C-terminus, was then immobilized to the nickel sulfate on the Ni-NTA sensor chip. After, the chip was washed with buffer (150 mM NaCl, 50 μM EDTA pH 7.4, 0).1% DMSO), then 100 μL of sequentially diluted Compound 3 acetate salt (0.125, 0.25, 0.5, 1, 2 μM), Compound 1 acetate salt (6.25, 12.5, 25, 50, 100 nM) or Compound 2 acetate salt (0.125, 0.25, 0.5, 1, 2 μM) was injected at the rate of 60 ul/min and allowed to dissociate for 60 seconds. Data was collected as sensorgrams. Binding kinetics were derived from sensorgrams using BI-Data Analysis Program (Biosensing Instrument, Tempe AZ). Affinity analysis of GC-A with Compound 3, Compound 2 and/or Compound 1 interactions were performed using a 1:1 Langmuir binding model. Two series were performed for all studies.

[2] = target: T2, human pGC-A (Homo sapiens, UniProt P16066); experiment: Positive allosteric modulation of pGC-A-mediated cGMP production, HTRF competition assay (Example 1); format: cell-based; conditions: free base; for EC50: HEK 293 human pGC-A expressing cells, presence of EC30 ANP (1.3 pM), average of 3 independent experiments, read-out: pEC50 cGMP response (converted)
T2 construct: expressed in transfected cells; host or cells: HEK293
T2 sequence (P16066 33-1061): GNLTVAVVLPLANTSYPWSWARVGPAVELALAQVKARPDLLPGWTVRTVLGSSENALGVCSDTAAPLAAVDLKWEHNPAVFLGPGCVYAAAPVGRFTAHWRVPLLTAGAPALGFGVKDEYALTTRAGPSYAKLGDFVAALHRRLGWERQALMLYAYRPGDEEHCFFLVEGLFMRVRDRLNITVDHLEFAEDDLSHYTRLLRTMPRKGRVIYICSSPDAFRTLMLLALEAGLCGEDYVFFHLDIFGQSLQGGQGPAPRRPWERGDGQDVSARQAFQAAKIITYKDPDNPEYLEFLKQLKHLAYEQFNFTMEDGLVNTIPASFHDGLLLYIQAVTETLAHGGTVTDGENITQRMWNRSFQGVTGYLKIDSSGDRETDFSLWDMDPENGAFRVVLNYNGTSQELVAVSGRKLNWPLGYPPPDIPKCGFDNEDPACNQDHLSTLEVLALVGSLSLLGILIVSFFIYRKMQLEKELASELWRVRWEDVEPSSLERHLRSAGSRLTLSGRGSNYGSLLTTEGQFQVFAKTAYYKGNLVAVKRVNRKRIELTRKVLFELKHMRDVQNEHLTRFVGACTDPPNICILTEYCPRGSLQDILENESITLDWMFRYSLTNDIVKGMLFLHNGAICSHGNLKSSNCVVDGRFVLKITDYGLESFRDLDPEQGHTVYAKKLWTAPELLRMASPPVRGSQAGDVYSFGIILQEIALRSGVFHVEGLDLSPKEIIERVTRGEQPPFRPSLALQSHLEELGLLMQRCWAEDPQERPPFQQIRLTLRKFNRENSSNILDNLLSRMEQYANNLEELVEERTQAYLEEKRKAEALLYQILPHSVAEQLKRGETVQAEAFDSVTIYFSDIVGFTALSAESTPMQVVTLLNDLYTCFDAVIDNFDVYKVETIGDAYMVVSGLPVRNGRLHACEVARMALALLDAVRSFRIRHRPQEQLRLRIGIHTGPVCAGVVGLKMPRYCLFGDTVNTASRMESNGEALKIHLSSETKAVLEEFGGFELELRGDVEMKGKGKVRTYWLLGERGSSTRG
T2 sequence (P01160 124-151 partner limits assumed): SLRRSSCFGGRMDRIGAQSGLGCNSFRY
Experimental: Test compounds at 10 mM DMSO stock concentration were added to 384 well assay plates using Tecan dispenser starting at 40 μM concentration and diluted 2-fold for 10-point concentration-response curves. Wells were backfilled with DMSO such that the final concentration of DMSO in all wells was maintained at 0.3% DMSO. Positive allosteric modulation (presence of EC30 concentration of ANP at 1.3 pM) of pGC-A-mediated activation of cGMP production was measured in human pGC-A overexpressing HEK293 cells by homogenous time-resolved florescence (HTRF) competition assay using cGMP CisBio detection kit (Cat #: 62GM2PEC). Enantiomerically pure(S)-N-(4,6-difluorobenzo[d]thiazol-2-yl)-1-(2-(dimethylamino)ethyl) piperidine-3-carboxamide and (R)-N-(4,6-difluorobenzo[d]thiazol-2-yl)-1-(2-(dimethylamino)ethyl) piperidine-3-carboxamide were individually synthesized from enantiomerically pure starting materials (R- and S-nipecotic acid).

Kd [1] [µM]	kon [1] [M⁻¹ s⁻¹]	koff [1] [s⁻¹]	EC50 [2] [µM]	fold more potent than the R-enantiomer (compound 2) ([2]; presence of ANP) [fold]	SMILES
0.176	113000	0.02			CN(C)CCN1CCCC(C(=O)Nc2nc3c(F)cc(F)cc3s2)C1 (racemic) [Compound 3, N-(4,6-difluorobenzo[d]thiazol-2-yl)-1-(2-(dimethylamino)ethyl) piperidine-3-carboxamide]
0.012	1.09e+06	0.014	0.398	3.5	CN(C)CCN1CCC[C@H](C(=O)Nc2nc3c(F)cc(F)cc3s2)C1 [Compound 1, (S)-N-(4,6-difluorobenzo[d]thiazol-2-yl)-1-(2-(dimethylamino)ethyl) piperidine-3-carboxamide]
0.121	430000	0.052	1.26		CN(C)CCN1CCC[C@@H](C(=O)Nc2nc3c(F)cc(F)cc3s2)C1 [Compound 2, (R)-N-(4,6-difluorobenzo[d]thiazol-2-yl)-1-(2-(dimethylamino)ethyl) piperidine-3-carboxamide]
